Laboratory results published in US20150359884A1, “MULTI-PHOTON ISOMERISATION OF COMBRETASTATINS AND THEIR USE IN THERAPY” (priority 2011, published 2015).

Tests used:
[1] = Two-photon absorption cross section using reference fluorophore 9-chloroanthracene; type: physicochemical; settings: at 620 nm, DCM
Source text: Cell images were overlaid using Adobe Photoshop CS3.
Published cross sections for two photon absorption (σ2, the probability of an absorption process or photon interaction) typically show large variations depending on the method of measurement, using either the Z-scan method or a reference fluorophore, and the power range and pulse duration of the laser used for excitation. We have attempted to determine values of σ2 for E-CA4 and E-ACA4 using a reference fluorophore. 9-Chloroanthracene (9CIA) was selected as a standard fluorophore with an appropriate fluorescence spectrum and for which 2PE cross-sections are available. The values of σ2 at 620 nm for E-CA4 and E-CA4F in DCM were determined to be 2.1±0.5 and 2.75±0.6 GM units respectively. […] Values of σ2 at 620 nm for E-ACA and E-DMAC were both 5.7±1.2. These larger values may be consistent with some charge transfer character of the excitation of these compounds.

HeLa cells = test: Fluorescence lifetime imaging (FLIM) of uptake and intracellular concentration in HeLa cells; settings: HeLa cells, 100 μM added
Description: (§1) Both HeLa and Chinese hamster ovary (CHO) cells were obtained from the European Collection of Cell Cultures. HeLa cells were cultured in MEM medium (Gibco) containing 10% foetal calf serum, penicillin (100 units/mL), streptomycin (100 μg/mL) and glutamine (2 mM). CHO cells were cultured in DMEM (Gibco) with the same additions as for the HeLa cells. For microscopy the adherent cell cultures were grown in 35 mm diameter glass-bottom culture dishes with optical quality glass (MatTek Corporation) and incubated at 37° C. in a humidified atmosphere containing 5% CO2. Human umbilical vein endothelial cells (HUVECs) were obtained from TCS Cellworks. HUVECs were sub-cultured in basal medium (TCS Cellworks) supplemented with antibiotic supplement/amphotericin-B, following the detailed guidelines provided by TCS Cellworks.
The fluorescence lifetime imaging system with multiphoton excitation employed lasers for multiphoton excitation consisting of a Ti:Sapphire laser, tuneable between 700 and 1000 nm and providing ca 180 fs pulses at 76 MHz, and an optical parametric oscillator (OPO) pumped by a second Ti:Sapphire laser source. Using the doubled idler output of the OPO, useful energies (>200 mW) could be obtained between 550 and 640 nm. Samples were excited on the stage of Nikon TE2000U inverted microscope using a water immersion ×60 objective of NA 1.2. Using the various microscope ports it was possible to record the fluorescence in a number of ways. The fluorescence signal at one port was relayed to a spectrometer (Acton 275) and CCD setup (Andor iDUS) so that emission spectra and intensities could be recorded. Alternatively the fluorescence signal could be routed via a second port to a time-correlated single photon counting (TCSPC) system (Becker and Hickl SPC-830) allowing fluorescence lifetime measurements and fluorescence lifetime imaging (FLIM), using Becker and Hickl software (SPCImage) for analysis. In FLIM mode the fluorescence was isolated by a suitable narrowband interference filter (400IU25 together with BG3 (Comar)). […] Two photon cross sections were determined using a reference fluorophore as a two photon standard as described by Mathai et al., employing published values of the two-photon cross section for 9-chloroanthracene.
Images of intracellular distribution of E-combretastatins in cell monolayers were obtained using fluorescence lifetime imaging, in which the rastered excitation laser beam dwells on each pixel for a few milliseconds and at each position records a nanosecond fluorescence lifetime decay curve using the time-correlated single photon counting method. […]
Quantification of fluorophore concentration from intensity measurements is often difficult.

[2] = Fluorescence lifetimes in solvents, two-photon excitation with TCSPC; type: physicochemical; settings: for Fluorescence lifetime τ: 20° C., two-photon excitation 620-630 nm
Description: Fluorescence lifetimes were determined using 2PE at 630 nm with the microscope TCSPC setup (overall time response of 25 ps fwhm) and produced the results shown in Table 1. […] Characterisation of the spectroscopic properties of these latter two compounds remains to be investigated further. […] In the very viscous environment provided by glycerol the lifetime increases further to 1180 ps. In the range of alkanols studied the lifetime is closely correlated with solvent viscosity as shown in the inset to FIG. 3. […] However it is clear that the measured lifetime has the potential to report on cellular environments in FLIM studies. For E-CA4F similar trends are observed, but the overall differences in both lifetimes and quantum yields over the range of solvents are rather less than for E-CA4. The fluorescence lifetimes of E-CA4F are confined to a narrower range having values ranging from 440 ps in methanol through 740 ps in hexane to 1070 ps in glycerol. The more pronounced solvent dependence for E-CA4 no doubt reflects the more polar nature of the molecule compared with E-CA4F. The relative polarities may be judged from the partition coefficients (P) calculated according to the method of Brown et al..

cells = settings: typical toxicity assays; cited from earlier work
[3] = test system: Chinese hamster ovary (CHO) cells; test: Fluorescence lifetime imaging (FLIM) of uptake and intracellular concentration in CHO cells
Description: as §1, with “HUVECs were sub-cultured in basal medium (TCS Cellworks) supplemented with antibiotic supplement/amphotericin-B, following the detailed guidelines provided by TCS Cellworks.” left out
The fluorescence lifetime imaging system with multiphoton excitation employed lasers for multiphoton excitation consisting of a Ti:Sapphire laser, tuneable between 700 and 1000 nm and providing ca 180 fs pulses at 76 MHz, and an optical parametric oscillator (OPO) pumped by a second Ti:Sapphire laser source. […] Using the various microscope ports it was possible to record the fluorescence in a number of ways. The fluorescence signal at one port was relayed to a spectrometer (Acton 275) and CCD setup (Andor iDUS) so that emission spectra and intensities could be recorded. […] In FLIM mode the fluorescence was isolated by a suitable narrowband interference filter (400IU25 together with BG3 (Comar)). […]

[4] = room temperature, approximately 10 minutes

## COc1ccc(/C=C/c2cc(OC)c(OC)c(OC)c2)cc1O [E-CA4, (E)-1-(3′,4′,5′-Trimethoxyphenyl)-2-(4″-methoxy-3″-hydroxy-phenyl)ethene]
[1]
  Two photon absorption cross section σ2: 2.1±0.5 GM units
HeLa cells
  Intracellular concentration as times the concentration in the medium: 20-40 times
HeLa cells; [4]
  Intracellular concentration, smaller regions: > 4 mM
  Intracellular concentration, substantial regions of the cell cytoplasm: > 2 mM
[2]; DCM, ne = non-exponential
  Fluorescence lifetime τ: 0.50 ns
[2]; DMSO
  Fluorescence lifetime τ: 0.49 ns
[2]; EtOH, ne = non-exponential
  Fluorescence lifetime τ: 0.28 ns
[2]; Ethylene glycol, ne = non-exponential
  Fluorescence lifetime τ: 0.58 ns
[2]; Glycerol, ne = non-exponential
  Fluorescence lifetime τ: 1.18 ns
[2]; Hexane
  Fluorescence lifetime τ: 0.86 ns
[2]; MeCN, ne = non-exponential
  Fluorescence lifetime τ: 0.29 ns
[2]; MeOH, ne = non-exponential
  Fluorescence lifetime τ: 0.23 ns
[2]; acetonitrile
  Fluorescence lifetime: around 220 ps
[2]; as shown in FIG. 10, compared with TRIR in dichloromethane
  Fluorescence lifetime: 500 ps
[2]; glycerol
  Fluorescence lifetime: 1180 ps
[2]; hexane
  Fluorescence lifetime: 855 ps
cells
  Concentrations required to kill cells: micromolar
[3]; 10 μM in the medium
  Concentrating of the drug, factor relative to the surrounding medium: 25-75 times
[3]; 10 μmol dm^−3, 2PE 628 nm
  Intracellular distribution: located mainly within the cytoplasmic region of the cell
